Experimental data reported in EP2974743B1, “CYCLODEXTRIN CARRIER-BASED ARTEANNUIN COMPOUND CONJUGATE AND PREPARING METHOD THEREOF” (KPC Pharmaceuticals, Inc., priority 2012, dated 2014).

Assays:
solubility in water = assay type: physicochemical; settings: in words
Excerpt: Also, the cyclodextrin carrier-based arteannuinoid compound is absorbed in merely a small amount when passing through stomach and small intestine of a human body, which is mainly absorbed by the large intestine, with a property of releasing in straight cecum. Therefore, the cyclodextrin carrier-based arteannuinoid compound according to the present disclosure can effectively enter the body of a patient, improving the bioavailability.

[1] = system: mouse hepatocarcinoma H22; settings: 300 mg/kg by gavage; cited from earlier work
Lovo = experiment: MTT assay, tumor cell growth inhibition; assay type: cell-based; settings: human rectal cancer cells Lovo, 48h culture with compound
Procedure: (§1) For example, 180 µl suspension of human rectal cancer cells HCT116, Lovo, SW480 and HT29 (at a concentration of 4×10^4/mL) was added to a 96 well plate, and pre-cultured under 5% CO2, 37°C and saturated moisture for 24h. 150 µl medium was replaced, and 20 µl medium containing molecular assembly at different concentrations was added. The cells were cultured for another 48h, with the medium free of a sample as a negative control, and a medium containing camptothecin, oxaliplatin or fluorouracil at different concentrations as positive controls. MTT assay was used to determine the OD value, and the growth inhibition rate was calculated. The inhibition of compounds at high, medium and low concentration on the tumor cell proliferation was observed. All the experiments above were performed in triplet. The results of in vitro experiment of the arteannuin cyclodextrin conjugate on human rectum and caecum cancer cell are shown in table 1. Table 1. The comparison of IC50 values (µM) for the cyclodextrin carrier-based arteannuinoid compound conjugate according to the present disclosure and some arteannuinoid compounds in several rectal cancer cells.

HCT116 = experiment: MTT assay, tumor cell growth inhibition; assay type: cell-based; settings: human rectal cancer cells HCT116, 48h culture with compound
Procedure: as §1

HT 90 = experiment: MTT assay, tumor cell growth inhibition; assay type: cell-based; settings: human rectal cancer cells HT 90 (text: HT29), 48h culture with compound
Procedure: as §1

SW480 = experiment: MTT assay, tumor cell growth inhibition; assay type: cell-based; settings: human rectal cancer cells SW480, 48h culture with compound
Procedure: as §1

solubility in water (solubility in water)	IC50 (Lovo) [µM]	IC50 (HCT116) [µM]	IC50 (HT 90) [µM]	IC50 (SW480) [µM]	Molecule	anti-tumor rate [1]
almost insoluble in water					C[C@H]1[C@H](OC(=O)CCC(=O)O)O[C@@H]2O[C@@]3(C)CC[C@H]4[C@H](C)CC[C@@H]1[C@@]24OO3 [artesunate]	above 40%
	0.72	0.84	5.3	3.92	mono-6-artesunate-β-cyclodextrin conjugate [Example 1]	
